What was measured:
[1] = test system: JEG-3 cells; test: Specific uptake of cytarabine into the cells (LC/MS); format: cell-based, human; details: Cy 5 μM, after 30 min and 1 h; compared with Pricell-0051, MCF-7, HepG2 cells; P < 0.05
Procedure: JEG-3 cells, MCF-7 cells, or HepG2 cells were plated overnight in 6-well plates. Then, the adhered cells were treated with Cy (5 μM) for 30 min or 60 min. Then, cells were washed with PBS for moving the free drug in the medium. After that, the cells were lysed and treated with acetonitrile for precipitating protein. Finally, the content of Cy was detected by LC/MS (8050, SHIMADZU, Japan).

[2] = test system: JEG-3 cells; test: Effect of endocytosis inhibitors on liposome uptake; format: cell-based, human; details: pre-treatment 30 min; chlorpromazine 50 μM, indomethacin 50 μM, colchicine 10 μM, quercetin 10 μM
Procedure: Endocytosis was studied by adding JEG-3 cells to 6 well-plates and pre-treating them for 30 min with inhibitors of various endocytic pathways including the clathrin-dependent endocytosis inhibitor chlorpromazine (50 μM), the caveolin-dependent endocytosis inhibitor indomethacin (50 μM), the micropinocytosis inhibitor colchicine (10 μM), and quercetin (10 μM) as tools for inhibiting caveolae- or clathrin-independent endocytosis. Then, the medium was removed, and the fresh medium containing Dox-labeled liposomes was added to the plate. The cells were incubated for another 4 h. Subsequent steps were the same as those in uptake assay.

[3] = molecular target: T1, ENT1 (Homo sapiens, UniProt Q99808); test: Effect of ENT1 competitive inhibitors on MTX formulation cytotoxicity (MTT); details: then 20 μg MTX-equivalent/mL for 48 h; for effect of pre-treatment on toxicity of Cy-Lipo@MTX to JEG-3 cells: inhibitor 0.2-5.0 μM for 2 h
T1 sequence (Q99808 1-456): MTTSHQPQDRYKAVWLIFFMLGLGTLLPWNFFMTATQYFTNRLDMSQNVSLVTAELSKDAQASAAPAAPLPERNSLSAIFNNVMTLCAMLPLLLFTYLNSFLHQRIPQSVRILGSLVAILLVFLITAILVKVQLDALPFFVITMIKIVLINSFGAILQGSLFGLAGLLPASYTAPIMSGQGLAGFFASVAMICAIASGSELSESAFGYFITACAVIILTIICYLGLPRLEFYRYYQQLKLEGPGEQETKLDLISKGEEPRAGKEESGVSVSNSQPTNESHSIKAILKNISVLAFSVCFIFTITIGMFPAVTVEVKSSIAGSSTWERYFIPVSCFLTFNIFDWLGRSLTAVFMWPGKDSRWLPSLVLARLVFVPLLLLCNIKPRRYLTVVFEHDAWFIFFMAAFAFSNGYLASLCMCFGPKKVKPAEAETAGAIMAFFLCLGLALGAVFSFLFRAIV
Procedure: To investigate the effect of ENT1 on MTX formulations induced cytotoxicity, 2′-deoxycytidine and gemcitabine, as competitive inhibitors of ENT1, were cultured with adherent JEG-3 cells for 2 h. Next, the medium was removed, and the fresh medium containing MTX formulations (20 μg MTX-equivalent/mL) was added to the plate. The cells were incubated for another 48 h. MTT reagent was added as previously described, and absorbance was assessed via microplate reader.

[4] = molecular target: T1, ENT1; test: Competitive inhibition of liposome uptake by ENT1 substrates; format: cell-based; parameters: endogenous in cells; host or cells: JEG-3 (human choriocarcinoma cells); details: pre-treatment 2 h, 0.2-5.0 μM, then liposomes 4 h
Procedure: Briefly, different concentration (0.2–5.0 μM) of 2′-deoxycytidine or gemcitabine was cultured with the adherent JEG-3 cells for 2 h. Then, the medium was removed, and the fresh medium containing Dox-labeled liposomes was added to the plate. The cells were incubated for another 4 h. Subsequent steps were the same as those in uptake assay.

Q: How did the “amount of Cy taken up by JEG-3 cells” value [1] turn out when `Nc1ccn([C@@H]2O[C@H](CO)[C@@H](O)[C@@H]2O)c(=O)n1` [Cy, cytosine β-d-arabinofuranoside] was run?
A: significantly higher than that taken up by Pricell-0051, MCF-7, and HepG2 cells

Q: `O=c1c(O)c(-c2ccc(O)c(O)c2)oc2cc(O)cc(O)c12` [Quercetin, quercetin] was tested. Which “effect of endocytosis inhibitor on uptake of Dox-labeled Cy-Lipo” value (from here on “effect of endocytosis inhibitor”) [2] did it give?
A: a certain inhibitory effect

Q: `CN(C)CCCN1c2ccccc2Sc2ccc(Cl)cc21` [chlorpromazine] was tested. Which “effect of endocytosis inhibitor” value [2] did it give?
A: next most substantial inhibition

Q: For `COc1cc2c(c(OC)c1OC)-c1ccc(OC)c(=O)cc1[C@@H](NC(C)=O)CC2` [colchicine], which “effect of endocytosis inhibitor” value [2] is on record?
A: reduced effect

Q: For `Cl.Nc1ccn([C@H]2C[C@H](O)[C@@H](CO)O2)c(=O)n1` [deoxycytidine, 2′-deoxycytidine hydrochloride], which “effect of pre-treatment on toxicity of Cy-Lipo@MTX to JEG-3 cells” value [3] is on record?
A: significantly reduced the toxicity of Cy-Lipo@MTX to JEG-3 cells

Q: What about the “effect on uptake of Dox-labeled Cy-Lipo by JEG-3 cells” value [4] of the same compound?
A: significantly reduce the uptake of Dox-labeled Cy-Lipo by JEG-3 cells in a concentration-dependent manner

Q: What about the “effect on uptake of Dox-labeled Lipo by JEG-3 cells” value [4] of the same compound?
A: less of effect

Q: What does the source list for `Nc1ccn([C@@H]2O[C@H](CO)[C@@H](O)C2(F)F)c(=O)n1` [gemcitabine]?
A: effect of pre-treatment on toxicity of Cy-Lipo@MTX to JEG-3 cells [3]: significantly reduced the toxicity of Cy-Lipo@MTX to JEG-3 cells; effect of pre-treatment on cytotoxicity of free MTX or Lipo@MTX in JEG-3 cells ([3]; inhibitor for 2 h): little effect; effect on uptake of Dox-labeled Cy-Lipo by JEG-3 cells [4]: significantly influenced the uptake of Dox-labeled Cy-Lipo at concentrations of 1.0 μM and 5.0 μM

Q: Which “effect of endocytosis inhibitor” value [2] does the source give for `COc1ccc2c(c1)c(CC(=O)O)c(C)n2C(=O)c1ccc(Cl)cc1` [indomethacin] here?
A: impacted the uptake of Dox-labeled Cy-Lipo to the greatest extent

Reference: article PMC8207694, “Nucleoside transporter-guided cytarabine-conjugated liposomes for intracellular methotrexate delivery and cooperative choriocarcinoma therapy” (Journal of Nanobiotechnology, 2021)
